Measurements from patent US12421282B2, “Compositions and methods for the treatment of metabolic and liver disorders” (priority 2021, dated 2025).
Like-named read-outs stand apart in the source and are kept apart here. *1 amine or outer side, *2 acyl side, *3 side chain or, on linkers, in order; H or OH if unused. Where a SMILES comes first, the peptide text is derived from it. Side-chain parts run from the residue outwards. [ ]: non-standard residue; d: D form. The star is where a group is joined. Nonadecanoyl(19-PO3H2) = O=C(CCCCCCCCCCCCCCCCCCP(=O)(O)O)*; γGlu = O=C(O)[C@H](CCC(=O)[*:2])N[*:1]; AEEA = NCCOCCOCC(=O)O; Aib = CC(C)(N)C(=O)O

Tests used:
[1] = target: T1, human recombinant GIP receptor (Homo sapiens, UniProt P48546); experiment: TagLite binding assay, GIP receptor, without and with 2% HSA
T1 sequence (P48546 22-466): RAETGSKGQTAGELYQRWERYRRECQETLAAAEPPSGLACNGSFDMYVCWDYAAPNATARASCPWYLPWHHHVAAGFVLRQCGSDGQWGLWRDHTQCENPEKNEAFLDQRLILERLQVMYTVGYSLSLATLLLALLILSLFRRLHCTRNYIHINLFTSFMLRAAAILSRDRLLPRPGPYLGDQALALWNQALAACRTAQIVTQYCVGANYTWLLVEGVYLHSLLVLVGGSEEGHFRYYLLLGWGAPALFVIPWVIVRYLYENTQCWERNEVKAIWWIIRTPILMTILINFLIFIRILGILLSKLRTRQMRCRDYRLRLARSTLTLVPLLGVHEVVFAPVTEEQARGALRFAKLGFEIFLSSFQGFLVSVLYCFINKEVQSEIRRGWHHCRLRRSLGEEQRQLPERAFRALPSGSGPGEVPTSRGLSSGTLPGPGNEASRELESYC
Excerpt: (§1) Binding data for Compounds 15-25, for two human recombinant G protein coupled receptors, GLP-1 and GIP, was obtained using […]® binding assay and Epics Therapeutics cell lines. The binding assay was repeated in the presence of 2% human serum albumin (HSA). Compounds 16, 21, and 22 have an HSA ratio for the GLP-1 receptor of 7.1, 7.6, and 7.8, respectively. Compounds 15, 18, and 23 have an HSA ratio for the GIP receptor of 7.3, 4.3, and 6.4, respectively. A lower HSA ratio indicates greater binding affinity for the receptor than for albumin when compared to a compound with a greater HSA ratio.

[2] = parameters: species or system cynomolgus monkeys; conditions: cynomolgus monkey, in vivo, sc, 0.2 mg/kg
Description: Subcutaneous (SC) dosing of the compounds in a vehicle of 0.1% bovine serum albumin in phosphate buffered saline solution was performed with male cynomolgus monkeys. […] Samples were obtained at 1, 4, 8, 12, 24, 48, 72, 96, 120, 168, 192, 240 and 336 hours after the single dose was administered.

[3] = target: human recombinant GLP-1 receptor (Homo sapiens, UniProt P43220); experiment: TagLite binding assay, GLP-1 receptor, without and with 2% HSA
Excerpt: as §1

[4] = 2% human serum albumin, read-out: GIP receptor IC50 2% HSA
[5] = no HSA, read-out: GIP receptor IC50 No HSA
[6] = 2% human serum albumin, read-out: GLP-1 receptor IC50 2% HSA
[7] = no HSA, read-out: GLP-1 receptor IC50 No HSA

Chain of human recombinant GLP-1 receptor (P43220 24-463): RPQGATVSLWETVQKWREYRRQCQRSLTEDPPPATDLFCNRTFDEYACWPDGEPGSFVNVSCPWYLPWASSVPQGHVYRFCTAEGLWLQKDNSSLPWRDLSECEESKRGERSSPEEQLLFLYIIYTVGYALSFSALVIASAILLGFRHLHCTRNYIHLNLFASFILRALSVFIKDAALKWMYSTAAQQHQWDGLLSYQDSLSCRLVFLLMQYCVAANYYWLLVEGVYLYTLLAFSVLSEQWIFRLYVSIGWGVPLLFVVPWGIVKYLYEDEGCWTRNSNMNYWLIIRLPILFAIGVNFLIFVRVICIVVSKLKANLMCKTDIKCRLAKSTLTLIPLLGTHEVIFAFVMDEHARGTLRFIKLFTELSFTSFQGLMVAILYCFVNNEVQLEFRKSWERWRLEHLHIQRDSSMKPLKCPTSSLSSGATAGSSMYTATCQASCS

Row | SMILES | IC50 [1, 4] [nM] | IC50 [1, 5] [nM] | AUC(0-inf) [2] [µg·h/mL] | AUC(0-t) [2] [µg·h/mL] | Cmax [2] [ng/mL] | Tmax [2] [h] | half-life [2] [h] | mean half life longer compared to tirzepatide [2] | IC50 [3, 6] [nM] | IC50 [3, 7] [nM] | mean half life as compared to tirzepatide (in words) [2]
1 | CC[C@H](C)[C@H](NC(=O)[C@H](CC(C)C)NC(=O)[C@H](Cc1c[nH]c2ccccc12)NC(=O)[C@H](CCC(N)=O)NC(=O)[C@@H](NC(=O)[C@H](Cc1ccccc1)NC(=O)[C@H](C)NC(=O)[C@H](CCCCNC(=O)COCCOCCNC(=O)COCCOCCNC(=O)CC[C@H](NC(=O)CCCCCCCCCCCCCCCCCCP(=O)(O)O)C(=O)O)NC(=O)[C@H](CCC(N)=O)NC(=O)[C@H](C)NC(=O)[C@@H](NC(=O)[C@H](CCCCN)NC(=O)[C@H](CC(=O)O)NC(=O)[C@H](CC(C)C)NC(=O)[C@H](Cc1ccccc1)NC(=O)[C@@H](NC(=O)[C@H](CO)NC(=O)[C@H](Cc1ccc(O)cc1)NC(=O)[C@H](CC(=O)O)NC(=O)[C@H](CO)NC(=O)[C@@H](NC(=O)[C@H](Cc1ccccc1)NC(=O)[C@@H](NC(=O)CNC(=O)[C@H](CCC(=O)O)NC(=O)C(C)(C)NC(=O)[C@@H](N)Cc1ccc(O)cc1)[C@@H](C)O)[C@@H](C)O)[C@@H](C)CC)C(C)C)C(C)C)C(=O)N[C@@H](C)C(=O)NCC(=O)NCC(=O)N1CCC[C@H]1C(=O)N[C@@H](CO)C(=O)N[C@@H](CO)C(=O)NCC(=O)N[C@@H](C)C(=O)N1CCC[C@H]1C(=O)N1CCC[C@H]1C(=O)N1CCC[C@H]1C(=O)N[C@@H](CO)C(N)=O [Compound 19] (H-Y[Aib]EGTFTSDYSIFLDKVAQK([AEEA-AEEA-γGlu-Nonadecanoyl(19-PO3H2)])AFVQWLIAGGPSSGAPPPS-NH2) | 4440 | 551 | 175 | 159 | 1240 | 20 | 96.7 | at least 50% | 1340 | 153 | –
2 | CC[C@H](C)[C@H](NC(=O)[C@H](CCCCN)NC(=O)[C@H](CC(=O)O)NC(=O)[C@H](CC(C)C)NC(=O)C(C)(C)NC(=O)[C@@H](NC(=O)[C@H](CO)NC(=O)[C@H](Cc1ccc(O)cc1)NC(=O)[C@H](CC(=O)O)NC(=O)[C@H](CO)NC(=O)[C@@H](NC(=O)[C@H](Cc1ccccc1)NC(=O)[C@@H](NC(=O)CNC(=O)[C@H](CCC(=O)O)NC(=O)C(C)(C)NC(=O)[C@@H](N)Cc1ccc(O)cc1)[C@@H](C)O)[C@@H](C)O)[C@@H](C)CC)C(=O)N[C@@H](C)C(=O)N[C@@H](CCC(N)=O)C(=O)N[C@@H](CCCCNC(=O)COCCOCCNC(=O)COCCOCCNC(=O)CC[C@H](NC(=O)CCCCCCCCCCCCCCCCCCP(=O)(O)O)C(=O)O)C(=O)N[C@@H](C)C(=O)N[C@@H](Cc1ccccc1)C(=O)N[C@H](C(=O)N[C@@H](CCC(N)=O)C(=O)N[C@@H](Cc1c[nH]c2ccccc12)C(=O)N[C@@H](CC(C)C)C(=O)N[C@H](C(=O)N[C@@H](CCCNC(=N)N)C(=O)NCC(=O)NCC(=O)N1CCC[C@H]1C(=O)N[C@@H](CO)C(=O)N[C@@H](CO)C(=O)NCC(=O)N[C@@H](C)C(=O)N1CCC[C@H]1C(=O)N1CCC[C@H]1C(=O)N1CCC[C@H]1C(=O)N[C@@H](CO)C(N)=O)[C@@H](C)CC)C(C)C [Compound 20] (H-Y[Aib]EGTFTSDYSI[Aib]LDKIAQK([AEEA-AEEA-γGlu-Nonadecanoyl(19-PO3H2)])AFVQWLIRGGPSSGAPPPS-NH2) | 4420 | 492 | 417 | 342 | 2060 | 13.3 | 132 | at least 50% | 2050 | 226 | more than twice an long as compared to tirzepatide
3 | CC[C@H](C)[C@H](NC(=O)[C@H](CCCCN)NC(=O)[C@H](CC(=O)O)NC(=O)[C@H](CC(C)C)NC(=O)[C@H](Cc1ccccc1)NC(=O)[C@@H](NC(=O)[C@H](CO)NC(=O)[C@H](Cc1ccc(O)cc1)NC(=O)[C@H](CC(=O)O)NC(=O)[C@H](CO)NC(=O)[C@@H](NC(=O)[C@H](Cc1ccccc1)NC(=O)[C@@H](NC(=O)CNC(=O)[C@H](CCC(=O)O)NC(=O)C(C)(C)NC(=O)[C@@H](N)Cc1ccc(O)cc1)[C@@H](C)O)[C@@H](C)O)[C@@H](C)CC)C(=O)N[C@@H](C)C(=O)N[C@@H](CCC(N)=O)C(=O)N[C@@H](CCCCNC(=O)COCCOCCNC(=O)COCCOCCNC(=O)CC[C@H](NC(=O)CCCCCCCCCCCCCCCCCCP(=O)(O)O)C(=O)O)C(=O)N[C@@H](C)C(=O)N[C@@H](Cc1ccccc1)C(=O)N[C@H](C(=O)N[C@@H](CC(N)=O)C(=O)N[C@@H](Cc1c[nH]c2ccccc12)C(=O)N[C@@H](CC(C)C)C(=O)N[C@H](C(=O)N[C@@H](C)C(=O)NCC(=O)NCC(=O)N1CCC[C@H]1C(=O)N[C@@H](CO)C(=O)N[C@@H](CO)C(=O)NCC(=O)N[C@@H](C)C(=O)N1CCC[C@H]1C(=O)N1CCC[C@H]1C(=O)N1CCC[C@H]1C(=O)N[C@@H](CO)C(N)=O)[C@@H](C)CC)C(C)C [Compound 21] (H-Y[Aib]EGTFTSDYSIFLDKIAQK([AEEA-AEEA-γGlu-Nonadecanoyl(19-PO3H2)])AFVNWLIAGGPSSGAPPPS-NH2) | 5280 | 561 | 54 | 49.4 | 339 | 48 | 90.5 | at least 50% | 1100 | 144 | –
4 | CC[C@H](C)[C@H](NC(=O)[C@H](CC(C)C)NC(=O)[C@H](Cc1c[nH]c2ccccc12)NC(=O)[C@H](CCC(N)=O)NC(=O)[C@@H](NC(=O)[C@H](Cc1ccccc1)NC(=O)[C@H](C)NC(=O)[C@H](CCCCNC(=O)COCCOCCNC(=O)COCCOCCNC(=O)CC[C@H](NC(=O)CCCCCCCCCCCCCCCCCCP(=O)(O)O)C(=O)O)NC(=O)[C@H](CCC(N)=O)NC(=O)[C@H](C)NC(=O)[C@@H](NC(=O)[C@H](CCCCN)NC(=O)[C@H](CC(=O)O)NC(=O)[C@H](CC(C)C)NC(=O)C(C)(C)NC(=O)[C@@H](NC(=O)[C@H](CO)NC(=O)[C@H](Cc1ccc(O)cc1)NC(=O)[C@H](CC(=O)O)NC(=O)[C@H](CO)NC(=O)[C@@H](NC(=O)[C@H](Cc1ccccc1)NC(=O)[C@@H](NC(=O)CNC(=O)[C@H](CCC(=O)O)NC(=O)C(C)(C)NC(=O)[C@@H](N)Cc1ccc(O)cc1)[C@@H](C)O)[C@@H](C)O)[C@@H](C)CC)[C@@H](C)O)C(C)C)C(=O)N[C@@H](C)C(=O)NCC(=O)NCC(=O)N1CCC[C@H]1C(=O)N[C@@H](CO)C(=O)N[C@@H](CO)C(=O)NCC(=O)N[C@@H](C)C(=O)N1CCC[C@H]1C(=O)N1CCC[C@H]1C(=O)N1CCC[C@H]1C(=O)N[C@@H](CO)C(N)=O [Compound 23] (H-Y[Aib]EGTFTSDYSI[Aib]LDKTAQK([AEEA-AEEA-γGlu-Nonadecanoyl(19-PO3H2)])AFVQWLIAGGPSSGAPPPS-NH2) | 5630 | 873 | 574 | 439 | 2940 | 34.7 | 159 | at least 50% | 3120 | 400 | more than twice an long as compared to tirzepatide
